This note sets out measurements from PubChem BioAssay (NCI).

Some test systems named below: PC-3 prostate; EKVX NSCLC; ACHN renal; NCI-H522 lung; NCI-H460 lung; SF-539 CNS; UO-31 renal; DU-145 prostate; TK-10 renal; MDA-MB-231 breast; OVCAR-5 ovarian; MCF7 breast; MALME-3M melanoma; RPMI-8226 leukemia; MDA-N; T-47D breast; KM12 colon; UACC-62 melanoma.
Holding throughout (assay): NCI-60 cell line screen, 48 h

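Where inhibition never reached the appropriate level, the endpoint shown equals the highest concentration tested. Otherwise, values were interpolated linearly from a five-concentration, 48-hour dose response in 96-well plates. The concentration for full growth arrest is given as TGI.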 Bounds are passed on as bounds.

With `COC(=O)/C=C(/C(=O)OC)c1cc2ccc3c([nH]c4ccccc43)c(C)c-2c1`, the TGI was 14.2 µM in the test on PC-3 prostate; 24.2 µM in the test on EKVX NSCLC; > 100 µM with ACHN renal; 5.83 µM with NCI-H522 lung; 18.6 µM with NCI-H460 lung; 31.5 µM in the test on SF-539 CNS. Besides, the TGI in the test with UO-31 renal was 17.1 µM; in the test on DU-145 prostate, 42.2 µM; in the test with TK-10 renal, > 100 µM; in the test with MDA-MB-231 breast, 15.1 µM; with OVCAR-5 ovarian, 13.6 µM; in the test on MCF7 breast, 13.3 µM. The TGI is 19.6 µM with MALME-3M melanoma; 25.2 µM in the test on RPMI-8226 leukemia; 9.9 µM in the test with MDA-N; > 100 µM in the test on T-47D breast; 36.5 µM with KM12 colon; 17.8 µM with UACC-62 melanoma.
`CCOC(=O)NC(C(=O)OCC)(N1CCN(c2cc3c(cc2F)c(=O)c(C(=O)O)cn3CC)CC1)C(F)(F)F` (stereo unspecified): the TGI in the test with PC-3 prostate is > 100 µM; in the test with EKVX NSCLC, 56.9 µM; in the test with ACHN renal, > 100 µM; in the test on NCI-H522 lung, > 100 µM; with NCI-H460 lung, > 100 µM; in the test with SF-539 CNS, > 100 µM. The TGI with UO-31 renal, with DU-145 prostate, in the test on TK-10 renal, with MDA-MB-231 breast, in the test with OVCAR-5 ovarian and in the test with MCF7 breast was > 100 µM each time. The TGI in the test on MALME-3M melanoma, in the test with RPMI-8226 leukemia, with MDA-N, in the test on T-47D breast, in the test on KM12 colon and in the test on UACC-62 melanoma was > 100 µM in each case.
Consider `COc1ccc(P2(=S)SP(=S)(c3ccc(Cl)cc3)S2)cc1` (stereo unspecified), for which the TGI in the test with PC-3 prostate, in the test on EKVX NSCLC, in the test with ACHN renal, in the test with NCI-H522 lung, in the test with NCI-H460 lung and with SF-539 CNS was > 100 µM each time. Moreover, the TGI in the test on UO-31 renal, with DU-145 prostate, in the test with TK-10 renal, in the test with MDA-MB-231 breast, in the test with OVCAR-5 ovarian and with MCF7 breast was > 100 µM each time. The TGI in the test on MALME-3M melanoma, in the test with RPMI-8226 leukemia, in the test on MDA-N, in the test on T-47D breast, with KM12 colon and with UACC-62 melanoma was > 100 µM in each case.
For `CC(C)COC(=O)OC(=O)c1ccc(N(C)Cc2cnc3nc(N)nc(N)c3n2)cc1`, the TGI in the test with PC-3 prostate is > 100 µM; with EKVX NSCLC, > 100 µM; in the test with ACHN renal it was > 79.4 µM; in the test on NCI-H522 lung, > 100 µM; with NCI-H460 lung, > 100 µM; in the test on SF-539 CNS, > 51.8 µM. Besides, the TGI with UO-31 renal, in the test on DU-145 prostate, in the test with TK-10 renal, in the test with MDA-MB-231 breast, with OVCAR-5 ovarian and in the test on MCF7 breast was > 100 µM in each case. Also, the TGI in the test on MALME-3M melanoma, in the test with RPMI-8226 leukemia, in the test on MDA-N, in the test with T-47D breast, with KM12 colon and in the test on UACC-62 melanoma was > 100 µM in each case.
Consider `Cc1c(-c2ccccc2)c(C#N)c2nnn(C3CCCCC3)c(=O)n12`, for which the TGI in the test with PC-3 prostate, in the test on EKVX NSCLC, in the test with ACHN renal, in the test on NCI-H522 lung, in the test on NCI-H460 lung and in the test with SF-539 CNS was > 100 µM in each case. The TGI in the test with UO-31 renal is 6.85 µM; with DU-145 prostate, > 100 µM; in the test with TK-10 renal it was > 100 µM; in the test on MDA-MB-231 breast it was 66 µM; with OVCAR-5 ovarian, > 100 µM; in the test with MCF7 breast it was > 100 µM. Also, the TGI in the test on MALME-3M melanoma, in the test with RPMI-8226 leukemia, in the test on MDA-N, with T-47D breast, in the test with KM12 colon and with UACC-62 melanoma was > 100 µM in each case.
As for `NC(=O)C(=CNC(=S)Nc1ccc(Cl)c(Cl)c1)C(N)=O`, the TGI in the test with PC-3 prostate is > 100 µM; with EKVX NSCLC, > 100 µM; in the test on ACHN renal, > 100 µM; with NCI-H522 lung it was 72.3 µM; in the test on NCI-H460 lung, > 100 µM; in the test on SF-539 CNS it was > 100 µM. Further, the TGI in the test with UO-31 renal is > 73.6 µM; with DU-145 prostate, > 100 µM; in the test on TK-10 renal it was > 100 µM; with MDA-MB-231 breast it was > 100 µM; in the test with OVCAR-5 ovarian, > 100 µM; with MCF7 breast it was > 100 µM. The TGI with MALME-3M melanoma was > 100 µM; in the test with RPMI-8226 leukemia it was > 100 µM; with MDA-N it was > 100 µM; in the test with T-47D breast, > 72.9 µM; in the test on KM12 colon, > 100 µM; with UACC-62 melanoma, > 100 µM.
Take `O=C(O)CC1NC(/C(=C/c2ccccc2O)NC(=O)c2ccccc2)OC1=O` (stereo unspecified): the TGI with PC-3 prostate is > 100 µM; in the test on EKVX NSCLC, > 100 µM; in the test with ACHN renal, > 51 µM; with NCI-H522 lung, > 100 µM; with NCI-H460 lung it was > 100 µM; in the test on SF-539 CNS it was 66.9 µM. Further, the TGI was > 63.6 µM in the test with UO-31 renal; > 100 µM with DU-145 prostate; > 100 µM in the test with TK-10 renal; > 68.3 µM with MDA-MB-231 breast; > 100 µM in the test on OVCAR-5 ovarian; > 100 µM in the test with MCF7 breast. In addition, the TGI in the test on MALME-3M melanoma, in the test on RPMI-8226 leukemia, in the test with MDA-N, in the test on T-47D breast, in the test with KM12 colon and in the test on UACC-62 melanoma was > 100 µM throughout.
